Measurements published in US6334944B1, “Process for producing an amino acid-N,N-diacetic acid and its salts” (Showa Denko K.K., priority 1998, dated 2002).

Test: Hygroscopicity and redissolution of dried powder or crystal
Type: physicochemical
Conditions: for Hygroscopicity: dried powder or crystal
Method: The powder contained 9.98% of calcium.
The crystal was dried in air at 25° C. to reduce the moisture content to 0.7%.

O=C([O-])CCC(C(=O)[O-])N(CC(=O)[O-])CC(=O)[O-].[Fe+3].[NH4+] (stereo not drawn) [Example 22, ammonium ferric salt of glutamic acid-N,N-diacetic acid]
Hygroscopicity: free of hygroscopicity

calcium disodium glutamic acid-N,N-diacetate [Example 13]
Hygroscopicity: free of hygroscopicity
Dissolution of powder in water (spray-dried powder): readily dissolved in water
